Assay in all cases: DTP human tumour cell line panel, 48 h
In test [1] the test system is A549.
Test [2] deals with ACHN.
In test [3] the test system is CCRF-CEM.
Test [4] deals with HOP-62.
Test [5] concerns HT-29.
The subject of test [6] is Hs-578T.
In test [7] the test system is IGROV-1.
In test [8] the test system is M14.
For test [9], the system named is MCF7.
Test [10] relates to MDA-MB-435.
For test [11], the system named is MDA-N.
Test [12] deals with Malme-3M.
Test [13] deals with NCI-H460.
Test [14] deals with PC-3.
In test [15] the test system is SF-268.
Test [16] has as its system SK-MEL-28.
Test [17] concerns T47D.
Test [18] deals with UO-31.
For test [19], the system named is A498.

The record followed here is ChEMBL document CHEMBL1201862, “PubChem BioAssay data set” (2004).

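Step 1: Grow cells in 96-well plates. Step 2: Expose to compound for 48 hours at 5 concentrations. Step 3: Interpolate endpoints linearly; if unreached, use highest concentration. The concentration for 50% growth inhibition is given as GI50.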 The source made the active and inactive calls. No stated cut-off is given here; in the data, active = GI50 up to about 1.1 µM and inactive = higher. Where only a bound is given, the exact number is not on record here.

Take `CCOP(=O)(OCC)C(Cc1ccccc1)N=C(c1ccccc1)c1ccccc1` (configuration not stated): the GI50 (as a rule, the concentration giving 50% growth inhibition) in test [1] is 9.29 µM (inactive); in test [2], 14.9 µM (inactive); in [3] it was 9.95 µM (inactive); in [4] it was 17.6 µM (inactive); in test [5], 13.1 µM (inactive); in [6], 11.2 µM (inactive). Further, the GI50 was 13.9 µM (inactive) in test [7]; 15.3 µM (inactive) in test [8]; 13.9 µM (inactive) in test [9]; 13.2 µM (inactive) in [10]; 14.6 µM (inactive) in test [11]; 20.6 µM (inactive) in test [12]. The GI50 in test [13] was 14.8 µM (inactive); in [14] it was 3.96 µM (inactive); in test [15], 17.8 µM (inactive); in test [16] it was 17 µM (inactive); in [17], 6.97 µM (inactive); in test [18], 11.5 µM (inactive).

As to `C/C(=N\NC(=[Se])N1CCN(c2ccccn2)CC1)c1ccccn1`, the GI50 in [19] was 4.51 µM (inactive); in test [1] it was 3.72 µM (inactive); in [2], 2.37 µM (inactive); in [4], 0.0728 µM (active); in test [5], 0.01 µM (active); in test [6], 0.188 µM (active). The GI50 in test [7] was 0.01 µM (active); in test [8] it was 0.102 µM (active); in [9], 0.01 µM (active); in test [10], 2.06 µM (inactive); in test [11], 2.99 µM (inactive); in [12] it was 0.297 µM (active). Moreover, the GI50 in test [13] was 0.0269 µM (active); in test [14], 0.01 µM (active); in test [15], 3.21 µM (inactive); in [16], 10 µM (inactive); in [17], 0.01 µM (active); in test [18], 4.02 µM (inactive).

Take `COC(OC)C(O)C1OC=CC1n1cnc2c(N)ncnc21` (configuration not stated): the GI50 in test [19], in [2], in test [3], in test [4], in test [5] and in [6] was > 100 µM (inactive) throughout. Moreover, the GI50 in test [7], in [9], in [10], in [11], in [13] and in test [14] was > 100 µM (inactive) in each case. Besides, the GI50 is > 100 µM (inactive) in [15], > 100 µM (inactive) in test [16], > 100 µM (inactive) in test [17] and 0.792 µM (active) in [18].

Take `Cc1ccccc1OC(C)C(=O)NN1C(=O)CC(=O)NC1=S` (configuration not stated): the GI50 in [19] is > 100 µM (inactive); in [1] it was 68.9 µM (inactive); in test [2] it was 84.5 µM (inactive); in [4], > 100 µM (inactive); in [5] it was > 100 µM (inactive); in test [6] it was > 100 µM (inactive). The GI50 in test [7] is > 100 µM (inactive); in test [8] it was > 100 µM (inactive); in test [9], 47.4 µM (inactive); in [10], > 100 µM (inactive); in test [11], > 100 µM (inactive); in test [12], > 100 µM (inactive). Further, the GI50 in [13] is > 100 µM (inactive); in test [14], > 100 µM (inactive); in test [15] it was > 100 µM (inactive); in [16] it was > 100 µM (inactive); in test [17], 23.9 µM (inactive); in test [18] it was > 100 µM (inactive).

Consider `O=c1oc2ccccc2c(-c2ccc(O)cc2)c1Oc1ccc(Cl)cc1`, for which the GI50 in test [19] is 26.6 µM (inactive); in test [1] it was 19.3 µM (inactive); in [2], 25.8 µM (inactive); in [3] it was 21.4 µM (inactive); in [5], 20.1 µM (inactive); in [6] it was 16.1 µM (inactive). The GI50 in [7] is 20.3 µM (inactive); in test [8], 17.1 µM (inactive); in test [9], 4.88 µM (inactive); in test [10] it was 30 µM (inactive); in test [11], 19.5 µM (inactive); in test [12], 18.2 µM (inactive). Moreover, the GI50 in test [13] was 20.4 µM (inactive); in [14], 25.8 µM (inactive); in test [15], 23.6 µM (inactive); in [16] it was 15.3 µM (inactive); in [17], 29.6 µM (inactive); in test [18] it was 18.1 µM (inactive).

As for `O=C(CSc1nc2ccc(I)cc2c(=O)n1Cc1ccccc1)Nc1ccccc1`, the GI50 was 15.6 µM (inactive) in [19]; 26.6 µM (inactive) in test [1]; 26 µM (inactive) in test [2]; > 100 µM (inactive) in test [3]; 5.7 µM (inactive) in test [4]; > 100 µM (inactive) in test [5]. In addition, the GI50 is 3.65 µM (inactive) in [6]; 25.2 µM (inactive) in [7]; 52.1 µM (inactive) in [8]; 50.6 µM (inactive) in test [9]; > 100 µM (inactive) in test [10]; > 100 µM (inactive) in test [11]. Further, the GI50 in test [12] was 6.15 µM (inactive); in test [14], 11.4 µM (inactive); in test [15], 8.77 µM (inactive); in [16] it was 35.6 µM (inactive); in test [17] it was 21.2 µM (inactive); in [18], 0.331 µM (active).

For the compound `CNC(=S)/C(C#N)=C(\N)N1CCN(C)CC1`, the GI50 in test [19], in test [1], in [2], in test [3], in test [4] and in test [5] was > 100 µM (inactive) each time. For the same compound, the GI50 in [6], in test [7], in test [8], in test [9], in [10] and in [11] was > 100 µM (inactive) each time. The GI50 in [12], in [14], in test [15], in test [17] and in test [18] was > 100 µM (inactive) throughout.

Regarding `Cc1ccc2c(c1C)C(=O)C1(C2)Cc2ccc3c(c2C1=O)CCC3` (configuration not stated), the GI50 in test [19], in test [1], in test [2], in test [3], in test [5] and in test [6] was > 100 µM (inactive) throughout. Besides, the GI50 in [7] is > 100 µM (inactive); in test [8], 2.03 µM (inactive); in [9], > 100 µM (inactive); in [10], > 100 µM (inactive); in test [11], > 100 µM (inactive); in test [12] it was > 100 µM (inactive). Also, the GI50 in test [13], in [14], in [15], in test [16], in test [17] and in test [18] was > 100 µM (inactive) in each case.

Consider `c1ccc(NNC2=NCCN2)cc1`, for which the GI50 in test [19], in test [1], in test [2], in test [3], in test [4] and in [5] was > 100 µM (inactive) in each case. In addition, the GI50 in [6], in test [7], in [8], in test [9], in test [10] and in [11] was > 100 µM (inactive) each time. Moreover, the GI50 in [13], in test [14], in test [15], in test [16], in test [17] and in [18] was > 100 µM (inactive) throughout.

For `C#CCCOC(=O)c1ccccc1OC(C)=O`, the GI50 in test [19] is > 100 µM (inactive); in [2] it was > 100 µM (inactive); in test [3], > 100 µM (inactive); in test [4], 70.3 µM (inactive); in [6], > 100 µM (inactive); in test [7], > 100 µM (inactive). In addition, the GI50 in test [8], in test [9], in [10], in test [11], in test [13] and in [14] was > 100 µM (inactive) throughout. The GI50 in [15], in [17] and in [18] was > 100 µM (inactive) throughout.

In the case of `CC12CCCC(C(=O)O)(C1)[C@H](C(C)(C)C(=O)O)CC2` (some centres not stated), the GI50 in test [1], in [2], in test [3], in test [4], in test [5] and in [6] was > 100 µM (inactive) each time. The GI50 in test [7], in test [8], in [9], in test [10], in [11] and in test [12] was > 100 µM (inactive) each time. Further, the GI50 in test [13], in test [14], in test [15], in [16], in [17] and in test [18] was > 100 µM (inactive) in each case.
